# Results reported in US20020122830A1, “Method for the treatment of a soil containing soilborne pathogens” (priority 2000, published 2002).
# Like-named read-outs stand apart in the source and are kept apart here.
# How the values were obtained:
# [1] = system: V. dahliae microsclerotia; test: Viability of V. dahliae microsclerotia buried in amended soil (test tube bioassay); format: cell-based, Verticillium dahliae; details: for Ammonia level in soil coinciding with a rapid loss in the viability of microsclerotia: soil amended with MBM or SM
# Experimental: The viability of V. dahliae microsclerotia retrieved from soil was determined using the following experimental model system. […] Microsclerotia suspended in crushed silica sand was added to a nylon pouch which was then buried in the soil or suspended in the head space of each tube. Water was added to each tube to bring soil moisture to 0.33 bar tension. The tubes were then loosely capped, and placed in the dark at 24° C. On each date of analysis, the nylon pouches were retrieved and an Anderson air sampler used to impact the pouch contents onto a medium (soil-pectate-tergitol) selective for growth of V. dahliae. […] The levels of NH3, NO2^− and NO3^− in soil were determined at each sample date. […] The slurry was once again mechanically disrupted and its pH determined. The slurry was centrifuged and supernatant analyzed for total (NH3+NH4^+), (NHO2+NO2^−) and NO3^− using an ion chromatograph.
# V. dahliae MS [2] = system: V. dahliae MS
# Experimental: The germination of V. dahliae MS was determined using a setup similar to that described above for exposure of V. dahliae MS to NH3 in buffered solution. Exceptions being various amounts of 0.270 M NaNO2 stock solution were added (from 0 to 2.0 mL) to 40 mL of 0.02 M citric acid solution (set to pH 5.0 with NaOH (Perrin and Dempsey 1974)) and brought to 50 mL volume with the same citric acid solution. All experiments were done in triiplicate and repeated. Solutions were filter sterilized and 15 mL placed into sterile screw cap tubes (total capacity 15.5 mL). Immediately, V. dahliae MS were added to each tube, the tube closed, placed at 24° C. and in the dark and inverted twice daily. At 8 hours, 1 and 4 days, V. dahliae MS viability was determined. The concentration of HNO2 in solutions was estimated as described below. The effect of NO2^− on survival of V. dahliae MS was tested by adding various amounts of NaNO2 (0 to 53 mM NO2^−) to citric acid buffer and pH set to 4.0, 5.0 and 6.0. The effect of type of NO2^− salt on survival of V. dahliae MS was tested by adding KNO2 or NaCl instead of NaNO2 to citric acid buffer (set to pH 5.0). […]
# Various concentrations of HNO2 were generated in citric acid buffer solution at pH 4.0, 5.0 or 6.0 with NaNO2 added. […] Microsclerotia survival was determined as described previously for NH3 in glycine buffer.
# V. dahliae MS [3] = details: sealer jars, 30 mL solution, four days, room temperature
# Experimental: Exposure of V. dahliae MS to HNO2 gas was done using a similar procedure described above. To sealer jars (250 mL), 50 mL of a prepared solution of NaNO2 in citric acid solution was added. A V. dahliae MS bag was suspended in the atmosphere of the jar. The jar was sealed, and placed at 24° C. in the dark for 4 days. Thereafter the bags were retrieved and the viability of V. dahliae MS determined. This experiment was repeated and done in triplicate.
# Various amounts of HNO2 in atmosphere were subjected to microsclerotia by suspending microsclerotia in sealer jars containing 30 mL of citric acid HNO2 buffer solution and incubated in the dark at room temperature for four days.
# V. dahliae MS [4] = details: agar medium, germination recorded two weeks later
# Experimental: NH3 was generated in SPT medium by addition of various concentrations of NH4Cl to the medium and varying the pH of the medium (7, 7.6, 8 and 8.5). Immediately following cooling and hardening of the medium, 25 microsclerotia per Petri dish were transferred individually with a needle and germination recorded two weeks later.
# Various amountes of NH4Cl salt (to 0, 25, 50, 100 and 200 mM) was added to soil peclate medium (SPT) and the pH of the medium adjusted to 7.0, 7.6, 8.0 or 8.5 by addition of 5 M NaOH. For each level of NH4Cl and pH, three replicate dishes were poured. The agar was allowed to solidify for 2 hours and immediately thereafter 25 V. dahliae MS were individually transferred to each dish using a sterile hypodermic needle. The dishes were wrapped with Parafilm (American National Can, Neenah Wis.) to limit loss of NH3 by volatilization, and incubated for two weeks at 24° C. in the dark. The viability of V. dahliae MS was determined as percent of total MS forming colonies. The concentration of NH3 in medium was estimated as described below and ranged from 0 to 31 mM. The pH of medium after hardening and two weeks after incubation was tested using pH test strips (ColorpHast pH 5-10; EM Science, Gibbstown N.J.) and was within 0.5 units (limit of resolution of the test strips) of that set at the start.
# V. dahliae MS [5] = details: glycine buffer pH 8.6, exposure of four days
# Experimental: Various concentrations of NH3 were generated in glycine or tricine buffer solution at pH 8.6 with NH4Cl or (NH4)2SO4 added. A 15 mL test tube was filled with appropriate buffer and NH4^+ solution, microsclerotia added, the tube capped, then placed in the dark at 24° C. and the tubes inverted daily to suspend the microsclerotia in solution. Microsclerotia survival was determined by emptying contents of the tube into a Buchner funnel, the microsclerotia being retained on Whatman #42 filter paper, rinsed with distilled water, transferred to SPT medium by placing the filter paper in contact with the agar medium and removed leaving the microsclerotia adhering to the medium.
# The final volume was brought to 50 mL with the same glycine solution. Solutions were then sterilized by filtration through a 0.22 um pore size filter and 15 mL placed into three replicate sterile screw cap tubes (total capacity 15.5 mL) About 200 V. dahliae MS were immediately added to each tube and the tube closed and placed at 24° C. and in the dark. Tubes were inverted every 12 hours to mix and suspend V. dahliae MS in the solution. […] At 8 hours, 1 and 4 days, the contents of each tube was passed onto a Buchner funnel containing sterile filter paper (Whatman #42). […] The viability of V. dahliae MS was determined as the percentage of MS forming colonies out of 50 counted per replicate dish. […]
structure (smiles),measurement,setting,value
N.N.O=S(=O)(O)O [(NH4)2SO4],kill of microsclerotia,"[1]; 400 or 800 mg N kg^−1, air-dried Beauseart soil stored 1.5 years",failed to accumulate HNO2 and kill microsclerotia
same,kill of microsclerotia,"[1]; 400 or 800 mg N kg^−1, recently collected Mackenzie soil",death of microsclerotia
"O=NO [HNO2, nitrous acid]",HNO2 concentration sufficient to kill all microsclerotia,V. dahliae MS [2],about 0.025 mM
same,calculated HNO2 concentration required to kill all microsclerotia,V. dahliae MS [2],above 0.10 mM
same,HNO2 solution concentration above which suspended microsclerotia died in atmosphere,V. dahliae MS [3],0.10 mM
"N [NH3, Ammonia]",NH3 concentration preventing germination of microsclerotia,V. dahliae MS [4],> 3 mM
same,NH3 concentration preventing germination of microsclerotia,V. dahliae MS [5],greater than 5 mM
same,NH3 accumulation consistently accompanied with a rapid decline in the viability of microsclerotia in soil,[1]; in soil,greater than 10 mM
same,Ammonia level in soil coinciding with a rapid loss in the viability of microsclerotia,[1],> 20 mM
same,Ammonia level in soil coinciding with a rapid loss in the viability of microsclerotia,[1]; listed as Ammonia,> 65 mg N kg^−1 soil
"N.O [NH4OH, ammonium hydroxide]",addition sufficient to induce levels of NH3 sufficient to kill microsclerotia,"[1]; Thorndale or Beauseart soil, incubated four days (data not shown)",about 1800 mg NH4OH—N kg^−1
